Non-standard residues stand in square brackets, D forms with d. Residues, ends and D or L forms follow the SMILES beside them. *: point of attachment. Met(O2) = CS(=O)(=O)CC[C@H](N)C(=O)O; Cha = N[C@@H](CC1CCCCC1)C(=O)O; Tle = CC(C)(C)[C@H](N)C(=O)O; Nva = CCC[C@H](N)C(=O)O; Cbz = O=C(OCc1ccccc1)*; Boc = CC(C)(C)OC(=O)*

We go through 43 compounds from US12715896B2 (priority 2020, dated 2026).

One test concerns the target T1, SARS-CoV-2 M^pro (Severe acute respiratory syndrome coronavirus 2, UniProt P0DTD1). The test can be described thus: FRET-based enzymatic assay for SARS-CoV-2 main protease. In kind it is biochemical.
Conditions: not given
As to `CCC[C@H](NC(=O)[C@H](CC(C)C)NC(=O)[C@@H](NC(=O)OCc1ccccc1)C(C)C)C(=O)C(=O)NC1CC1` [Jun8-29-2], it took 480 nM to reach half-maximal inhibition (IC50).
Still for that read-out and setting: the same measure for `CSCC[C@H](NC(=O)[C@H](CC(C)C)NC(=O)[C@H](CC(C)C)NC(=O)OCc1ccccc1)C(=O)C(=O)NC1CC1` [Jun8-43-3]: 2800 nM; for `CSCC[C@@H](C=O)NC(=O)[C@H](CC(C)C)NC(=O)OCc1ccccc1` [Jun8-102-2] (Cbz-Leu-Met-aldehyde): 910 nM.
On the same count and under the same terms, the same measure for `CSCC[C@H](NC(=O)[C@H](CC(C)C)NC(=O)[C@H](CC1CCCCC1)NC(C)=O)C(=O)C(=O)NC1CC1` [Jun9-66-4]: 220 nM; for `CC(C)[C@H](NC(=O)OCc1ccccc1)C(=O)N[C@H](C=O)Cc1ccccc1` [calpain inhibitor III (MDL28170) (57), calpain inhibitor III] (Cbz-Val-Phe-aldehyde): more than 20000 nM; for `CSCC[C@H](NC(=O)[C@H](CC(C)C)NC(=O)[C@H](Cc1ccccc1)NC(C)=O)C(=O)C(=O)NC1CC1` [Jun9-24-3]: 460 nM.
Still for that read-out and setting: the same measure for `CC(=O)N[C@@H](CC(C)C)C(=O)N[C@@H](CC(C)C)C(=O)N[C@H](C=O)CCS(C)(=O)=O` [Jun9-58-1] (Ac-Leu-Leu-[Met(O2)]-aldehyde): 490 nM; for `CCC[C@H](NC(C)=O)C(=O)N[C@@H](CC(C)C)C(=O)N[C@@H](CCSC)C(=O)C(=O)NC1CC1` [Jun9-24-5]: 640 nM.
On to `CSCC[C@H](NC(=O)[C@H](CC(C)C)NC(=O)[C@H](CC(C)C)NC(C)=O)C(=O)C(=O)NCc1ccccc1` [Jun9-11-5], for which the IC50 (as a rule, the concentration at which inhibition is half-maximal) turned out to be 1770 nM.
The same measure, in the same setting: the same measure for `CSCC[C@H](NC(=O)[C@H](CC(C)C)NC(=O)[C@H](CC(C)C)NC(C)=O)C(=O)C(=O)NC(C)C` [Jun9-11-4]: 5990 nM; for `CSCC[C@H](NC(=O)[C@H](CC1CCCCC1)NC(=O)[C@@H](NC(C)=O)C(C)(C)C)C(=O)C(=O)NC1CC1` [Jun9-66-3]: 1520 nM; for `CSCC[C@@H](C=O)NC(=O)[C@H](CC(C)C)NC(C)=O` [Jun8-102-1] (Ac-Leu-Met-aldehyde): 4770 nM.
On the same count and under the same terms, the same measure for `CSCC[C@@H](C=O)NC(=O)[C@H](CC(C)C)NC(=O)OC(C)(C)C` [Jun9-2-3] (Boc-Leu-Met-aldehyde): more than 20000 nM.
Still for that read-out and setting: the same measure for `CC(=O)N[C@@H](CC(C)C)C(=O)N[C@@H](CC(C)C)C(=O)N[C@@H](CCS(C)(=O)=O)C(=O)C(=O)NC1CC1` [Jun9-65-1]: 180 nM.
Consider `CSCC[C@H](NC(=O)[C@H](CC(C)C)NC(=O)CNC(=O)OCc1ccccc1)C(=O)C(=O)NC1CC1` [Jun9-47-4], for which the midpoint of inhibition, the IC50, lay at 1200 nM.
Still for that read-out and setting: the same measure for `CCC[C@H](NC(=O)[C@H](CC(C)C)NC(=O)[C@H](CC(C)C)NC(=O)OCc1ccccc1)C(=O)C(=O)NC1CC1` [Jun8-18-4]: 340 nM; for `CCC[C@H](NC(=O)[C@H](CC(C)C)NC(=O)[C@H](Cc1ccccc1)NC(=O)OCc1ccccc1)C(=O)C(=O)NC1CC1` [Jun8-29-4]: 480 nM.
Same read-out and setting: the same measure for `CCC[C@H](NC(=O)[C@H](CC(C)C)NC(=O)OCc1ccccc1)C(=O)C(=O)NC1CC1` [Jun8-18-2]: more than 20000 nM.
Same read-out and setting: the same measure for `CC(C)C[C@H](NC(=O)CNC(=O)OCc1ccccc1)C(=O)N[C@@H](CCS(C)(=O)=O)C(=O)C(=O)NC1CC1` [Jun9-56-2]: 130 nM; for `CSCC[C@H](NC(=O)[C@H](CC(C)C)NC(=O)[C@H](CC(C)C)NC(C)=O)C(=O)C(=O)NC1CC1` [Jun9-11-3]: 540 nM.
In turn, `CC(=O)N[C@@H](Cc1ccccc1)C(=O)N[C@@H](CC(C)C)C(=O)N[C@@H](CC[S+](C)[O-])C(=O)C(=O)NC1CC1` (stereo partly drawn) [Jun9-24-4] showed an IC50 of 290 nM.
Same read-out and setting: the same measure for `CSCC[C@@H](C=O)NC(=O)[C@H](CC(C)C)NC(=O)[C@H](CC(C)C)NC(=O)OC(C)(C)C` [Jun9-2-4] (Boc-Leu-Leu-Met-aldehyde): 390 nM; for `CCC[C@@H](C=O)NC(=O)[C@H](CC(C)C)NC(=O)[C@H](CC(C)C)NC(C)=O` [Jun9-48-3] (Ac-Leu-Leu-[Nva]-aldehyde): 38500 nM.
On the same count and under the same terms, the same measure for `CSCC[C@@H](C=O)NC(=O)[C@H](CC1CCCCC1)NC(=O)[C@@H](NC(C)=O)C(C)(C)C` [Jun9-66-1] (Ac-[Tle]-[Cha]-Met-aldehyde): 320 nM; for `CCC[C@H](NC(=O)[C@H](CC(C)C)NC(=O)CNC(=O)OCc1ccccc1)C(=O)C(=O)NC1CC1` [Jun9-52-4]: 17700 nM; for `CSCC[C@@H](C=O)NC(=O)[C@H](CC(C)C)NC(=O)[C@H](Cc1ccccc1)NC(C)=O` [Jun9-2-5] (Ac-Phe-Leu-Met-aldehyde): 270 nM.
On to `CC(=O)N[C@@H](CC1CCCCC1)C(=O)N[C@@H](CC(C)C)C(=O)N[C@@H](CC[S+](C)[O-])C(=O)C(=O)NC1CC1` (stereo partly drawn) [Jun9-87-4], for which the IC50 was 270 nM.
Compound `CC(=O)N[C@@H](Cc1ccccc1)C(=O)N[C@@H](CC(C)C)C(=O)N[C@@H](CCS(C)(=O)=O)C(=O)C(=O)NC1CC1` [Jun9-56-3] returned a half-inhibitory concentration (IC50) of 140 nM.
Consider `CSCC[C@@H](C=O)NC(=O)[C@H](CC(C)C)NC(=O)[C@H](CC1CCCCC1)NC(C)=O` [Jun9-66-2] (Ac-[Cha]-Leu-Met-aldehyde), for which half-maximal inhibition (IC50) was put at 290 nM.
On the same count and under the same terms, the same measure for `CC(=O)N[C@@H](CC1CCCCC1)C(=O)N[C@@H](CC(C)C)C(=O)N[C@@H](CCS(C)(=O)=O)C(=O)C(=O)NC1CC1` [Jun9-82-2]: 100 nM.
Still for that read-out and setting: the same measure for `CCC[C@H](NC(=O)[C@H](CC(C)C)NC(=O)[C@H](CC(C)C)NC(C)=O)C(=O)C(=O)NC1CC1` [Jun9-49-1]: 5890 nM.
Same read-out and setting: the same measure for `CSCC[C@@H](C=O)NC(=O)[C@H](CC(C)C)NC(=O)[C@H](CC(C)C)NC(=O)OCc1ccccc1` [Jun8-61-4] (Cbz-Leu-Leu-Met-aldehyde): 110 nM; for `CC(C)C[C@H](NC(=O)CNC(=O)OCc1ccccc1)C(=O)N[C@@H](CC[S+](C)[O-])C(=O)C(=O)NC1CC1` (stereo partly drawn) [Jun9-24-1]: 510 nM; for `CCC[C@@H](C=O)NC(=O)[C@H](CC(C)C)NC(=O)CNC(=O)OCc1ccccc1` [Jun9-52-3] (Cbz-Gly-Leu-[Nva]-aldehyde): more than 20000 nM.
With `CC(=O)N[C@@H](CC(C)C)C(=O)N[C@@H](CC(C)C)C(=O)N[C@@H](CC[S+](C)[O-])C(=O)C(=O)NC1CC1` (stereo partly drawn) [Jun9-59-2], half-maximal inhibition (IC50) was put at 360 nM.

The test is the same for the next values; noted with them: read-out: inhibition against M^pro in primary screening.
Consider `COc1ccc2c(O[C@@H]3CC4C(=O)N[C@]5(C(=O)NS(=O)(=O)C6CC6)C[C@@H]5/C=C\CCCCN(C)C(=O)C4C3)cc(-c3nc(C(C)C)cs3)nc2c1C` (stereo partly drawn) [Simeprevir (24), Simeprevir], for which the inhibition (usually the relative decrease from the control value, in per cent) at 20 µM was more than 60%.
On the same count and under the same terms, the same measure for `CC(C)C[C@@H](C=O)NC(=O)[C@H](CC(C)C)NC(=O)[C@H](CC(C)C)NC(=O)OCc1ccccc1` [MG-132 (43), MG-132] (Cbz-Leu-Leu-Leu-aldehyde): more than 60%.
On the same count and under the same terms, the same measure for `CC(C)(C)NC(=O)N[C@H](C(=O)N1C[C@H]2[C@@H]([C@H]1C(=O)NC(CC1CCC1)C(=O)C(N)=O)C2(C)C)C(C)(C)C` (stereo partly drawn) [Boceprevir (28), Boceprevir]: more than 60%.
On the same count and under the same terms, the same measure for `CCCC[C@H](NC(=O)[C@@H]1[C@@H]2[C@H](CN1C(=O)[C@@H](NC(=O)NC1(CS(=O)(=O)C(C)(C)C)CCCCC1)C(C)(C)C)C2(C)C)C(=O)C(=O)NC1CC1` [Narlaprevir (29), Narlaprevir]: more than 60%.

The target in another test is T1, SARS-CoV-2 M^pro.
Experiment: not given
Format: binding. The note with it: melting temperature with compound; DMSO 55.74; 30 μM compound.
On to `CC(C)[C@H](NC(=O)OCc1ccccc1)C(=O)N[C@H](C=O)Cc1ccccc1` [calpain inhibitor III (MDL28170) (57), calpain inhibitor III] (Cbz-Val-Phe-aldehyde), for which the “2019-nCoV 3CL TSA Tm” value amounted to 55.36 ± 0.14 °C.
The same measure, in the same setting: the same measure for `CSCC[C@@H](C=O)NC(=O)[C@H](CC(C)C)NC(=O)[C@H](CC(C)C)NC(C)=O` [Calpain inhibitor II (61), Calpain inhibitor II] (Ac-Leu-Leu-Met-aldehyde): 62.93 ± 0.14 °C; for `CCCC[C@@H](C=O)NC(=O)[C@H](CC(C)C)NC(=O)OCc1ccccc1` [Calpeptin (56), Calpeptin]: 56.84 ± 0.00 °C; for `CC(C)(C)NC(=O)N[C@H](C(=O)N1C[C@H]2[C@@H]([C@H]1C(=O)NC(CC1CCC1)C(=O)C(N)=O)C2(C)C)C(C)(C)C` (stereo partly drawn) [Boceprevir (28), Boceprevir]: 62.41 ± 0.21/6.67 °C.
Take `CCC[C@@H](C=O)NC(=O)[C@H](CC(C)C)NC(=O)[C@H](CC(C)C)NC(=O)OCc1ccccc1` [MG-115 (60), MG-115] (Cbz-Leu-Leu-[Nva]-aldehyde): the “2019-nCoV 3CL TSA Tm” value is 60.51 ± 0.28 °C.
Still for that read-out and setting: the same measure for `CCCC[C@H](NC(=O)[C@@H]1[C@@H]2[C@H](CN1C(=O)[C@@H](NC(=O)NC1(CS(=O)(=O)C(C)(C)C)CCCCC1)C(C)(C)C)C2(C)C)C(=O)C(=O)NC1CC1` [Narlaprevir (29), Narlaprevir]: 60.92 ± 0.14/5.18 °C.
On to `CC(C)C[C@@H](C=O)NC(=O)[C@@H](NS(=O)(=O)c1ccc(F)cc1)C(C)C` [Calpain inhibitor VI (58), Calpain inhibitor VI], for which the “2019-nCoV 3CL TSA Tm” value is 55.46 ± 0.14 °C.

Staying with this test, now noted: shift vs DMSO; 30 μM compound.
Regarding `CC(C)[C@H](NC(=O)OCc1ccccc1)C(=O)N[C@H](C=O)Cc1ccccc1` [calpain inhibitor III (MDL28170) (57), calpain inhibitor III] (Cbz-Val-Phe-aldehyde), the “2019-nCoV 3CL TSA ΔTm” value is −0.38 °C.
The same measure, in the same setting: the same measure for `CSCC[C@@H](C=O)NC(=O)[C@H](CC(C)C)NC(=O)[C@H](CC(C)C)NC(C)=O` [Calpain inhibitor II (61), Calpain inhibitor II] (Ac-Leu-Leu-Met-aldehyde): 6.65 °C; for `CCCC[C@@H](C=O)NC(=O)[C@H](CC(C)C)NC(=O)OCc1ccccc1` [Calpeptin (56), Calpeptin]: 1.1 °C; for `CCC[C@@H](C=O)NC(=O)[C@H](CC(C)C)NC(=O)[C@H](CC(C)C)NC(=O)OCc1ccccc1` [MG-115 (60), MG-115] (Cbz-Leu-Leu-[Nva]-aldehyde): 4.77 °C.
Same read-out and setting: the same measure for `CC(C)C[C@@H](C=O)NC(=O)[C@@H](NS(=O)(=O)c1ccc(F)cc1)C(C)C` [Calpain inhibitor VI (58), Calpain inhibitor VI]: −0.28 °C.
